Where two headings read alike, the source gives them in different places.

The term Tmax denotes the time from dosing to the highest level. Usually MRT stands for the average time that molecules of a dose stay in the body.

The nature of data set [1]: In vivo pharmacokinetics in plasma and hippocampus (LC-MS/MS). The conditions noted are these: 3 mg/kg, po. On the set-up: species or system C57BL mice. The protocol: (§1) T-518, ACY-738, Ricolinostat, and Tubastatin A were synthesized in Takeda. For in vitro cellular experiments, the compounds were solubilized with DMSO and diluted in the culture medium at the indicated concentrations. For in vivo experiments, the compound was reconstituted in 0.5% methylcellulose and administered orally at the indicated doses. After administration, mouse hippocampus was isolated and homogenized in RIPA extraction buffer (50 mM Tris–HCl, 150 mM NaCl, 1% NP-40, 0.5% sodium deoxycholate, and 0.1% SDS, pH 8.0) supplemented with protease and phosphatase inhibitor cocktail (Thermo Fischer, Waltham, MA, USA). The homogenate was centrifuged at 10,000g for 15 min and the supernatant was taken as the RIPA-soluble fraction.
The compound concentration was measured by the method previously reported with modification. Briefly, the hippocampus tissues from treated mice were isolated and homogenized in 4 volumes of saline under ice-cold conditions and stored at − 80 °C until liquid chromatography-tandem mass spectrometry (LC–MS/MS) analysis. Before analysis, samples were thawed gently on ice and mixed with three volumes of acetonitrile. The acetonitrile mixtures were vortexed and centrifuged for supernatant collection. The supernatant was diluted in mobile phase A [10 mM ammonium formate and formic acid at 100:0.2 (v/v)] and injected into the LC/MS/MS system. T-518 was analyzed in multiple reaction monitoring mode using an API4000 or API5000 instrument (Applied Biosystems, Foster City, CA, USA) equipped with a Prominence Ultra-fast liquid chromatography system (Shimadzu, Kyoto, Japan) using Shimadzu Shim- pack XR-ODS (2.2 μm, 2.0 × 30 mm) column. Mobile phase B consisted of a mixture of acetonitrile and formic acid at 100:0.2 (v/v). Chromatographic separations were performed by gradient elution at a flow rate of 0.7 mL/min. Mobile phase B was held at 5% for 0.2 min, increased linearly to 99% for 1.1 min, maintained at 99% for 0.7 min, then returned to 5% in 0.01 min, followed by re-equilibration for 0.59 min. A multiple reaction monitoring was used to detect the parent and product ions for the tandem mass spectrometry of T-518, which were corresponding to m/z 494 and m/z 374, respectively, with the negative ion mode [DP; -40, EP; -10, CE; -35, CXP; -15 (arbitrary units)]. Analyst software TM (version 1.6.2) (AB SCIEX, Framingham, MA; https://sciex.com/products/software/analyst-software) was used for data acquisition and processing.

In data set [2] the test system is tubulin acetylation in WT mice or HDAC6 KO mice. Briefly: HDAC6 dependency of in vivo tubulin acetylation, WT and HDAC6 KO mice. The conditions noted are these: 300 mg/kg. Set-up: species or system mouse.
From the text: HDAC6 knockout (KO) mice were generated by deletion of a ~ 1.7-kbp region including exon15–20 of the Hdac6 gene using fertilized C57BL/6J eggs and the CRISPR-Cas9 system. […] Male hemizygous KO mice were selected by qPCR detection of the Hdac6 intron16 sequence (Figure S2A). The qPCR primers and probe sequences were as follows: FW primer; 5′-[…]-3′, RV primer; 5′-[…]-3′ and MGB probe; 5′-CCAGGCCATGTTTT-3′.
as §1
Acetylated α-tubulin and total tubulin levels were measured by sandwich ELISA. […]

In the next data set the test system is experimental mice. Description: Tolerability of chronic dosing. In kind it is in vivo.

As to `O=C1c2cc(-c3nnc(C(F)F)o3)cnc2CN1[C@@H]1CCCC[C@H]1NC(=O)C(F)(F)C(F)(F)F` [T-518, N-[(1R,2R)-2-{3-[5-(difluoromethyl)-1,3,4-oxadiazol-2-yl]-5-oxo-5H,6H,7H-pyrrolo[3,4-b]pyridin-6-yl}cyclohexyl]-2,2,3,3,3-pentafluoropropanamide], the “average exposure in 24 h in hippocampus” value in data set [1] (Fu,b 0.4) is reported as around 17 nM. Also, the “Hippocampus AUC0–24 h” value in data set [1] (C57BL mice) turned out to be 202 ng·h/g. Also, the Cmax in data set [1] (C57BL, mouse, hippocampus, Fu,b 0.4, read-out: Effective Cmax in hippocampus) is around 291 nM; in data set [1] (mouse, hippocampus, C57BL mice, read-out: Hippocampus Cmax), 144 ng/g; in data set [1] (mouse, plasma, C57BL mice, read-out: Plasma Cmax) it was 1040 ng/mL. In addition, the Tmax in data set [1] (C57BL, mouse, plasma and hippocampus, matrix not given, read-out: Tmax of a single oral dose) was at most 15 min; in data set [1] (mouse, hippocampus, C57BL mice, read-out: Hippocampus Tmax), 15 min; in data set [1] (mouse, plasma, C57BL mice, read-out: Plasma Tmax), 15 min. In addition, the MRT is 1.33 h in data set [1] (mouse, hippocampus, C57BL mice, read-out: Hippocampus MRT) and 1.76 h in data set [1] (mouse, plasma, C57BL mice, read-out: Plasma MRT). Further, in data set [1] (mouse, plasma, C57BL mice, read-out: Plasma AUC0–24 h), the AUC(0-t) worked out at 1720 ng·h/mL. The “tubulin acetylation in HDAC6 KO mice” value in data set [2] (27-week-old male HDAC6 KO mice) is listed as “had no effect”. The “tubulin acetylation in WT mice” value in data set [2] (27-week-old male WT mice) is “significantly elevated tubulin acetylation”. Also, the “tolerability of chronic dosing” value in the data set on experimental mice is “well tolerated”.

The record behind these values is article PMC8322070, “A novel orally active HDAC6 inhibitor T-518 shows a therapeutic potential for Alzheimer’s disease and tauopathy in mice” (Scientific Reports, 2021).
